# Tests used:
# [1] = system: SETVI (Foxtail, Green); assay: Preemergence herbicidal evaluation; type: in vivo, Setaria viridis; settings: rated 4-5 weeks after treatment
# Procedure, shortened: (§1)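 Greenhouse preemergence test: seed-soil mix sown on ~1 inch soil; aqueous acetone spray at equivalent of ~0.0156–0.500 kg/ha; greenhouse-held and watered; scored 0–9 visually at 4–5 weeks.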
# [2] = system: AMBEL (Ragweed, Common); assay: Preemergence herbicidal evaluation; type: in vivo, Ambrosia artemisifolia; settings: rated 4-5 weeks after treatment
# Procedure, shortened: as §1
# [3] = system: GALAP (Galium); assay: Preemergence herbicidal evaluation; type: in vivo, Galium aparine; settings: rated 4-5 weeks after treatment
# Procedure, shortened: as §1
# [4] = system: AMBEL (Ragweed, Common); assay: Postemergence herbicidal evaluation; type: in vivo, Ambrosia artemisifolia; settings: postemergence
# Procedure, shortened: (§2)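 Each compound, dispersed in an acetone/water mix (50/50) carrying 0.5% TWEEN 20, is nozzle-sprayed at 40 psi on approximately two-week-old seedlings at about 0.0156–0.500 kg/ha. Plants are assessed 4–5 weeks afterward on a 0–9 scale relative to control; duplicate tests are averaged.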
# [5] = system: ABUTH (Velvetleaf); assay: Preemergence herbicidal evaluation; type: in vivo, Abutilon theophrasti; settings: rated 4-5 weeks after treatment
# Procedure, shortened: as §1
# [6] = system: CASOB (Sicklepod); assay: Preemergence herbicidal evaluation; type: in vivo, Cassia obtusifolia; settings: rated 4-5 weeks after treatment
# Procedure, shortened: as §1
# [7] = system: IPOHE (Morningglory, Ivyleaf); assay: Postemergence herbicidal evaluation; type: in vivo, Ipomoea hederacea; settings: postemergence
# Procedure, shortened: as §2
# [8] = system: SAGPY (Arrowhead (Pygmaea)); assay: Preemergence weed control under flooded paddy conditions; type: in vivo, Sagittaria pygmaea; settings: rated 3-4 weeks after treatment
# Procedure, shortened: (§3)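 Values are visual 0-9 scores against a control for a preemergence application into paddy flood water at about 0.0313 to 0.500 kg/ha. Greenhouse duration was three to four weeks.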
# [9] = system: CYPSE (Flatsedge); assay: as above; type: in vivo, Cyperus serotinus; settings: rated 3-4 weeks after treatment
# Procedure, shortened: as §3
# [10] = system: ZEAMX (Corn, Field); assay: Postemergence herbicidal evaluation; type: in vivo, Zea mays; settings: postemergence
# Procedure, shortened: as §2
# [11] = system: ECHCG (Barnyardgrass); assay: Preemergence herbicidal evaluation; type: in vivo, Echinochloa crus-galli; settings: rated 4-5 weeks after treatment
# Procedure, shortened: as §1
# [12] = system: GLXMAW (Soybean, Williams); assay: Postemergence herbicidal evaluation; type: in vivo, Glycine max, (L.) Merr. cv Williams; settings: postemergence
# Procedure, shortened: as §2
# [13] = system: GLXMAW (Soybean, Williams); assay: Preemergence herbicidal evaluation; type: in vivo, Glycine max, (L.) Merr. cv Williams; settings: rated 4-5 weeks after treatment
# Procedure, shortened: as §1
structure (smiles),measurement,setting,value
"CCOC(=O)CN1C(=O)C(C(=O)OC)SC1=Nc1cc(-n2c(=O)cc(C(F)(F)F)n(C)c2=O)c(F)cc1Cl (stereo not drawn) [Compound 128, 5-Carboxy-2-{{2-chloro-5-[3,6-dihydro-3-methyl-2,6-dioxo-4-(trifluoromethyl)-1(2H)-pyrimidinyl]-4-fluorophenyl}imino}-4-oxo-3-thiazolidineacetic acid, 3-ethyl methyl ester]",Preemergence herbicidal rating SETVI,[1]; rate 0.0156 kg/ha,0.0
same,Preemergence herbicidal rating SETVI,[1]; rate 0.0313 kg/ha,1.0
same,Preemergence herbicidal rating SETVI,[1]; rate 0.1250 kg/ha,1.0
same,Preemergence herbicidal rating SETVI,[1]; rate 0.2500 kg/ha,7.0
same,Preemergence herbicidal rating AMBEL,[2]; rate 0.0156 kg/ha,0.0
same,Preemergence herbicidal rating AMBEL,[2]; rate 0.0313 kg/ha,0.0
same,Preemergence herbicidal rating AMBEL,[2]; rate 0.0625 kg/ha,0.0
same,Preemergence herbicidal rating AMBEL,[2]; rate 0.1250 kg/ha,2.0
same,Preemergence herbicidal rating AMBEL,[2]; rate 0.2500 kg/ha,3.0
same,Preemergence herbicidal rating GALAP,[3]; rate 0.0156 kg/ha,0.0
same,Preemergence herbicidal rating GALAP,[3]; rate 0.0313 kg/ha,0.0
same,Preemergence herbicidal rating GALAP,[3]; rate 0.0625 kg/ha,0.0
same,Preemergence herbicidal rating GALAP,[3]; rate 0.1250 kg/ha,1.0
same,Preemergence herbicidal rating GALAP,[3]; rate 0.2500 kg/ha,1.0
same,Herbicidal rating AMBEL,[4]; rate 0.0156 kg/ha,7.0
same,Herbicidal rating AMBEL,[4]; rate 0.0313 kg/ha,9.0
same,Herbicidal rating AMBEL,[4]; rate 0.0625 kg/ha,9.0
same,Preemergence herbicidal rating ABUTH,[5]; rate 0.0156 kg/ha,0.0
same,Preemergence herbicidal rating ABUTH,[5]; rate 0.0313 kg/ha,0.0
same,Preemergence herbicidal rating ABUTH,[5]; rate 0.0625 kg/ha,1.0
same,Preemergence herbicidal rating ABUTH,[5]; rate 0.1250 kg/ha,3.0
same,Preemergence herbicidal rating ABUTH,[5]; rate 0.2500 kg/ha,9.0
same,Preemergence herbicidal rating CASOB,[6]; rate 0.0156 kg/ha,0.0
same,Preemergence herbicidal rating CASOB,[6]; rate 0.0313 kg/ha,1.0
same,Preemergence herbicidal rating CASOB,[6]; rate 0.0625 kg/ha,1.0
same,Preemergence herbicidal rating CASOB,[6]; rate 0.2500 kg/ha,0.0
same,Herbicidal rating IPOHE,[7]; rate 0.0156 kg/ha,9.0
same,Herbicidal rating IPOHE,[7]; rate 0.0313 kg/ha,9.0
same,Herbicidal rating IPOHE,[7]; rate 0.0625 kg/ha,9.0
same,"herbicidal effect rating, SAGPY",[8]; 0.0313 kg/ha,0.0
same,"herbicidal effect rating, SAGPY",[8]; 0.0625 kg/ha,3.0
same,"herbicidal effect rating, SAGPY",[8]; 0.1250 kg/ha,4.0
same,"herbicidal effect rating, SAGPY",[8]; 0.2500 kg/ha,6.0
same,"herbicidal effect rating, CYPSE",[9]; 0.0625 kg/ha,0.0
same,"herbicidal effect rating, CYPSE",[9]; 0.2500 kg/ha,3.0
same,Herbicidal rating ZEAMX,[10]; rate 0.0156 kg/ha,3.5
same,Herbicidal rating ZEAMX,[10]; rate 0.0313 kg/ha,4.0
same,Herbicidal rating ZEAMX,[10]; rate 0.0625 kg/ha,6.0
same,Preemergence herbicidal rating ECHCG,[11]; rate 0.0156 kg/ha,0.0
same,Preemergence herbicidal rating ECHCG,[11]; rate 0.0313 kg/ha,0.0
same,Preemergence herbicidal rating ECHCG,[11]; rate 0.0625 kg/ha,0.0
same,Preemergence herbicidal rating ECHCG,[11]; rate 0.1250 kg/ha,0.0
same,Preemergence herbicidal rating ECHCG,[11]; rate 0.2500 kg/ha,2.0
same,Herbicidal rating GLXMAW,[12]; rate 0.0156 kg/ha,4.5
same,Herbicidal rating GLXMAW,[12]; rate 0.0313 kg/ha,4.5
same,Herbicidal rating GLXMAW,[12]; rate 0.0625 kg/ha,6.0
same,Preemergence herbicidal rating GLXMAW,[13]; rate 0.0156 kg/ha,0.0
same,Preemergence herbicidal rating GLXMAW,[13]; rate 0.0313 kg/ha,0.0
same,Preemergence herbicidal rating GLXMAW,[13]; rate 0.0625 kg/ha,0.0
same,Preemergence herbicidal rating GLXMAW,[13]; rate 0.1250 kg/ha,0.0
same,Preemergence herbicidal rating GLXMAW,[13]; rate 0.2500 kg/ha,0.0
"CC(C)COC(=O)CN1C(=O)CSC1=Nc1cc(-n2c(=O)cc(C(F)(F)F)n(C)c2=O)c(F)cc1Cl [Compound 121, Isobutyl 2-{{2-chloro-5-[3,6-dihydro-3-methyl-2,6-dioxo-4-(trifluoromethyl)-1(2H)-pyrimidinyl]-4-fluorophenyl}imino}-4-oxo-3-thiazolidineacetate]",Preemergence herbicidal rating SETVI,[1]; rate 0.0156 kg/ha,0.0
same,Preemergence herbicidal rating SETVI,[1]; rate 0.0313 kg/ha,3.0
same,Preemergence herbicidal rating SETVI,[1]; rate 0.0625 kg/ha,7.0
same,Preemergence herbicidal rating SETVI,[1]; rate 0.1250 kg/ha,9.0
same,Preemergence herbicidal rating SETVI,[1]; rate 0.2500 kg/ha,9.0
same,Preemergence herbicidal rating AMBEL,[2]; rate 0.0156 kg/ha,0.0
same,Preemergence herbicidal rating AMBEL,[2]; rate 0.0313 kg/ha,2.0
same,Preemergence herbicidal rating AMBEL,[2]; rate 0.0625 kg/ha,3.0
same,Preemergence herbicidal rating AMBEL,[2]; rate 0.1250 kg/ha,4.0
same,Preemergence herbicidal rating AMBEL,[2]; rate 0.2500 kg/ha,8.0
same,Preemergence herbicidal rating GALAP,[3]; rate 0.0156 kg/ha,0.0
same,Preemergence herbicidal rating GALAP,[3]; rate 0.0313 kg/ha,0.0
same,Preemergence herbicidal rating GALAP,[3]; rate 0.0625 kg/ha,0.0
same,Preemergence herbicidal rating GALAP,[3]; rate 0.1250 kg/ha,5.0
same,Preemergence herbicidal rating GALAP,[3]; rate 0.2500 kg/ha,9.0
same,Herbicidal rating AMBEL,[4]; rate 0.0156 kg/ha,9.0
same,Herbicidal rating AMBEL,[4]; rate 0.0313 kg/ha,9.0
same,Herbicidal rating AMBEL,[4]; rate 0.0625 kg/ha,9.0
same,Preemergence herbicidal rating ABUTH,[5]; rate 0.0156 kg/ha,9.0
same,Preemergence herbicidal rating ABUTH,[5]; rate 0.0313 kg/ha,9.0
same,Preemergence herbicidal rating ABUTH,[5]; rate 0.0625 kg/ha,9.0
same,Preemergence herbicidal rating ABUTH,[5]; rate 0.1250 kg/ha,9.0
same,Preemergence herbicidal rating ABUTH,[5]; rate 0.2500 kg/ha,9.0
same,Preemergence herbicidal rating CASOB,[6]; rate 0.0156 kg/ha,0.0
same,Preemergence herbicidal rating CASOB,[6]; rate 0.0313 kg/ha,0.0
same,Preemergence herbicidal rating CASOB,[6]; rate 0.0625 kg/ha,0.0
same,Preemergence herbicidal rating CASOB,[6]; rate 0.1250 kg/ha,9.0
same,Preemergence herbicidal rating CASOB,[6]; rate 0.2500 kg/ha,9.0
same,Herbicidal rating IPOHE,[7]; rate 0.0156 kg/ha,9.0
same,Herbicidal rating IPOHE,[7]; rate 0.0313 kg/ha,9.0
same,Herbicidal rating IPOHE,[7]; rate 0.0625 kg/ha,9.0
same,"herbicidal effect rating, SAGPY",[8]; 0.0313 kg/ha,0.0
same,"herbicidal effect rating, SAGPY",[8]; 0.0625 kg/ha,4.0
same,"herbicidal effect rating, SAGPY",[8]; 0.1250 kg/ha,4.0
same,"herbicidal effect rating, SAGPY",[8]; 0.2500 kg/ha,6.0
same,"herbicidal effect rating, CYPSE",[9]; 0.0313 kg/ha,2.0
same,"herbicidal effect rating, CYPSE",[9]; 0.1250 kg/ha,5.0
same,"herbicidal effect rating, CYPSE",[9]; 0.2500 kg/ha,5.0
same,Herbicidal rating ZEAMX,[10]; rate 0.0156 kg/ha,5.0
same,Herbicidal rating ZEAMX,[10]; rate 0.0313 kg/ha,5.0
same,Herbicidal rating ZEAMX,[10]; rate 0.0625 kg/ha,6.0
same,Preemergence herbicidal rating ECHCG,[11]; rate 0.0156 kg/ha,0.0
same,Preemergence herbicidal rating ECHCG,[11]; rate 0.0313 kg/ha,0.0
same,Preemergence herbicidal rating ECHCG,[11]; rate 0.0625 kg/ha,4.0
same,Preemergence herbicidal rating ECHCG,[11]; rate 0.1250 kg/ha,7.0
same,Preemergence herbicidal rating ECHCG,[11]; rate 0.2500 kg/ha,9.0
same,Herbicidal rating GLXMAW,[12]; rate 0.0156 kg/ha,6.0
same,Herbicidal rating GLXMAW,[12]; rate 0.0313 kg/ha,8.0
same,Herbicidal rating GLXMAW,[12]; rate 0.0625 kg/ha,8.0
same,Preemergence herbicidal rating GLXMAW,[13]; rate 0.0156 kg/ha,0.0
same,Preemergence herbicidal rating GLXMAW,[13]; rate 0.0313 kg/ha,0.0
same,Preemergence herbicidal rating GLXMAW,[13]; rate 0.0625 kg/ha,0.0
same,Preemergence herbicidal rating GLXMAW,[13]; rate 0.1250 kg/ha,1.0
same,Preemergence herbicidal rating GLXMAW,[13]; rate 0.2500 kg/ha,2.0

# — patent US20020137929A1, “1 - (3-heterocyclylphenyl) isothiourea, -isourea, -guanidine and -amidine herbicidal agents” (Intellectual Property Department, BASF Aktiengesellschaft, priority 1998, published 2002)
